# Source: US10538516B2, “Oxadiazole derivative and pharmaceutical containing same” (National Center for Geriatrics and Gerontology, priority 2015, dated 2020)
# Where two headings read alike, the source gives them in different places.
# Target: T1, GAβ-dependent amyloid fibril formation (Human Aβ1-40 + GM1-containing liposome) (Homo sapiens, UniProt P05067)
# T1 construct: Human Aβ1-40 (cat. #4307-v, prepared by Peptide Institute); purchased Peptide Institute 4307-v
# Test: Thioflavin T (ThT) assay of GAβ-dependent amyloid fibril formation (Aβ1-40 with GM1-containing liposome)
# Format: biochemical
# Protocol: <3. Evaluation of the Compounds Based on the Inhibitory Activity Against Amyloid Fibril Formation in Thioflabin T (ThT) Assay>
# Inhibitory activity against GAβ-dependent amyloid fibril formation of the above compounds 1 to 133 and 142 to 267 were evaluated in ThT assay.
# (1) Preparation of Aβ Solution
# Human Aβ1-40 (cat. #4307-v, prepared by Peptide Institute) was dissolved in a 0.02% ammonia solution (400 μM), and the mixture was treated in an ultracentrifuge (S110AT rotor, Hitachi) at 100,000 rpm for 3 hours. Approximately two-thirds of the upper layer of the supernatant was recovered and protein concentration was measured. The Aβ solution was aliquoted and stored at −80° C. until use, was melted immediately before use, and was diluted to 75 μM using phosphate buffer (PBS: cat. #10010, manufactured by Life Technologies).
# (2) Preparation of GM1-Containing Liposome
# Using a mixed solution of chloroform/methanol (1:1) as a solvent, a mixed solution of 100 mM each of cholesterol and sphingomyelin (both manufactured by Sigma-Aldrich) was prepared. To this mixed solution, GM 1 (cat. #1061, manufactured by Matreya Co.) was dissolved to make a solution of 50 mM concentration. This lipid mixed solution was aliquoted into glass test tubes and stored at −20° C. until use, was melted before use, was mixed with chloroform/methanol mixture (1:1) and mixed, and then the solvent was removed by applying nitrogen gas to the suspension. The dried lipid mixture was resuspended in PBS to be a GM1 concentration of 2.5 mM, and frozen and thawed 5 times with liquid nitrogen. The lipid suspension was centrifuged at 15,000 rpm for 10 minutes and the precipitate was resuspended in PBS to be a GM1 concentration of 2.5 mM. Using an ultrasonic crusher (XL-2000, MISONIX Co., Ltd.) equipped with a microchip, ultrasonic treatment was repeated on ice for 10 seconds until the suspension became transparent, and GM1-containing liposome was prepared. Immediately prior to use, PBS was added and diluted to a GM 1 concentration of 75 μM.
# (3) Preparation of Compound Solution
# Compounds 1 to 133 and 142 to 267 were prepared as 10 mM and 2 mM solution in DMSO, respectively. And each solution was diluted to 75 μM or 15 μM with PBS immediately prior to use.
# (4) GAβ-Dependent Amyloid Fibril Formation
# To a 96-well microplate, 5 μl each of the 75 μM Aβ solution prepared above (1), the compound solution prepared in (3) or 0.75% DMSO was mixed and incubated at room temperature for 10 minutes. Then, 5 μl each of 750 μM GM1-containing liposome prepared in (2) was added to each well and incubated at 37° C. for 18 hours.
# ThT (manufactured by Sigma-Aldrich) was adjusted to 5 μM using 50 mM glycine-NaOH buffer (pH 8.5). Immediately before measurement, 10 μl from each well of (4) was transferred to a 96-well black plate. 50 μl of 5 μM ThT solution was added from each injector to each well using a multi-plate reader (ARVO-HTS, manufactured by Perkin Elmer), and then the optimal fluorescence of ThT bound to amyloid fiber (excitation wavelength 430 nm, fluorescence wavelength 490 nm) was measured.
# The fluorescence intensity of ThT indicates the degree of amyloid fibrils formation. By calculating the ratio of the ThT fluorescence intensity between addition of the compound and without addition of the compound, the inhibition rate against amyloid fibril formation by the compound was calculated.
# [1] = inhibition rate against amyloid fibril formation, final concentration of the compound 25 μM, read-out: Inhibitory activity ABC evaluation
# [2] = @25 μM, read-out: ThT Inhibitory activity (% inhibition)
# T1 sequence (P05067 672-711 limits assumed): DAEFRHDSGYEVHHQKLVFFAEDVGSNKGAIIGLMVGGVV
SMILES,inhibition at 25 µM [1] [%],further results
"O=C(c1ccc(Cl)cc1)N1C[C@@H](O)C[C@H]1c1nc(-c2ccc(OC(F)(F)F)cc2)no1 [Compound 56, (4-chlorophenyl) ((2S,4S)-4-hydroxy-2-[3-{4-(trifluoro-methoxy)phenyl}-1,2,4-oxadiazol-5-yl]pyrrolidin-1-yl)methanone]",< 40,
"O=C(N[C@@H](CO)c1nc(-c2ccc(CF)cc2)no1)c1ccccc1 [Compound 162, N-[(1S)-1-{3-[4-(fluoromethyl)phenyl]-1,2,4-oxadiazol-5-yl}-2-hydroxyethyl] benzamide]",40 to 80,
"O=C(NC(CO)c1nc(-c2ccc(OC(F)(F)F)cc2)no1)c1c[nH]c2ccccc12 (stereo not drawn) [Compound 46, N-(2-hydroxy-1-[3-{4-(trifluoro-methoxy)phenyl}-1,2,4-oxadiazol-5-yl]ethyl)-1H-indole-3-carboxamide]",40 to 80,
"O=C(NC(CO)c1nc(-c2ccc(O)cc2)no1)c1ccc(Cl)cc1 (stereo not drawn) [Compound 78, 4-chloro-N-{2-hydroxy-1-[3-(4-hydroxyphenyl)-1,2,4-oxadiazol-5-yl]ethyl}benzamide]",> 80,"inhibition at 5 µM (@5 μM, read-out: ThT Inhibitory activity (% inhibition)): 52%; inhibition at 25 µM [2]: 89%"
O=C(N[C@@H](CO)c1nc(-c2ccc(-n3cccn3)cc2)no1)c1ccccc1 [Compound 180],< 40,
"O=C(NC(CO)c1nc(-c2ccc(C(F)(F)F)cc2)no1)c1cc2ccccc2[nH]1 (stereo not drawn) [Compound 182, N-(2-hydroxy-1-{3-[4-(trifluoromethyl)phenyl]-1,2,4-oxadiazol-5-yl}ethyl)-1H-indole-2-carboxamide]",40 to 80,inhibition at 25 µM [2]: 64%
"COc1ccc(-c2nnc([C@H](CO)NC(=O)c3ccc(Cl)cc3)o2)cc1F [Compound 113, (S)-4-chloro-N-(1-(5-(3-fluoro-4-methoxy-phenyl)-1,3,4-oxadiazol-2-yl)-2-hydroxy-ethyl)benzamide]",< 40,
"O=C(c1ccc(Cl)cc1)N(CCO)[C@@H](CO)c1nc(-c2ccc(OC(F)(F)F)cc2)no1 [Compound 96, (S)-4-chloro-N-(2-hydroxy-1-{3-[4-(trifluoromethoxy)phenyl]-1,2,4-oxadiazol-5-yl}ethyl)-N-(2-hydroxyethyl)benzamide]",40 to 80,
"O=C(N[C@@H](CO)c1nc(-c2ccccc2C(F)(F)F)no1)c1ccc(F)cc1 [Compound 181, 4-fluoro-N-[(1S)-2-hydroxy-1-{3-[2-(trifluoromethyl)phenyl]-1,2,4-oxadiazol-5-yl}ethyl]benzamide]",40 to 80,inhibition at 25 µM [2]: 73%
"O=C(N[C@@H](CO)c1nc(-c2cccc(C(F)(F)F)c2)no1)c1c[nH]c2ccccc12 [Compound 243, N-[(1S)-2-hydroxy-1-{3-[3-(trifluoromethyl)phenyl]-1,2,4-oxadiazol-5-yl}ethyl]-1H-indole-3-carboxamide]",< 40,
"O=C1CC(c2nc(-c3ccc(OC(F)F)cc3)no2)CN1c1ccc(Cl)cc1 (stereo not drawn) [Compound 52, 1-(4-chlorophenyl)-4-[3-{4-(difluoro-methoxy)phenyl}-1,2,4-oxadiazol-5-yl]pyrrolidin-2-one]",40 to 80,
"COc1ccc(-c2noc([C@@H](NC(=O)c3ccc(Cl)cc3)[C@@H](C)O)n2)cc1 [Compound 132, 4-chloro-N-((1S,2R)-2-hydroxy-1-(3-(4-methoxy-phenyl)-1,2,4-oxadiazol-5-yl)propyl)benzamide]",> 80,"inhibition at 25 µM (final concentration of the compound 25 μM, ratio of ThT fluorescence intensity with/without compound, 37° C. for 18 hours, read-out: inhibition rate against amyloid fibril formation (inhibitory activity on a scale of A to C)): > 80%"
"O=C(N[C@@H](CO)c1nc(-c2csc3ccccc23)no1)c1ccc(F)cc1 [Compound 230, N-[(1S)-1-[3-(1-benzothiophen-3-yl)-1,2,4-oxadiazol-5-yl]-2-hydroxyethyl]-4-fluorobenzamide]",40 to 80,inhibition at 25 µM [2]: 73%
"O=C(N[C@@H](CO)c1nc(-c2ccc3ccccc3n2)no1)c1ccc(F)cc1 [Compound 225, 4-fluoro-N-[(1S)-2-hydroxy-1-[3-(quinolin-2-yl)-1,2,4-oxadiazol-5-yl]ethyl] benzamide]",40 to 80,
"COc1ccc(-c2noc([C@H](CO)NC(=O)c3ccccc3)n2)cc1F [Compound 144, N-[(1S)-1-[3-(3-fluoro-4-methoxyphenyl)-1,2,4-oxadiazol-5-yl]-2-hydroxyethyl]benzamide]",> 80,
"CS(=O)(=O)Nc1ccc(-c2nnc([C@@H](CO)NC(=O)c3ccc(Cl)cc3)o2)cc1 [Compound 108, (R)-4-chloro-N-(2-hydroxy-1-(5-(4-(methyl-sulfonamido)phenyl)-1,3,4-oxzdiazol-2-yl)ethyl)benzamide]",< 40,
"O=C(N[C@@H](CO)c1nc(-c2ccc(O)cc2F)no1)c1ccccc1 [Compound 142, N-[(1S)-1-[3-(2-fluoro-4-hydroxyphenyl)-1,2,4-oxadiazol-5-yl]-2-hydroxyethyl]benzamide]",40 to 80,
"O=C(N[C@@H](CO)c1nc(-c2ccc(C(F)(F)F)cc2)no1)c1ccc(F)c(Cl)c1 [Compound 195, 3-chloro-4-fluoro-N-[(1S)-2-hydroxy-1-{3-[4-(trifluoromethyl)phenyl]-1,2,4-oxadiazol-5-yl}ethyl]benzamide]",> 80,

# More lines, main results first:
inhibition at 25 µM [1] [%],SMILES,further results
40 to 80,"O=C(c1cccc(Cl)c1)N1C[C@H](O)C[C@H]1c1nc(-c2ccc(OC(F)(F)F)cc2)no1 [Compound 58, (3-chlorophenyl) ((2S,4R)-4-hydroxy-2-[3-{4-(trifluoro-methoxy)phenyl}-1,2,4-oxadiazol-5-yl]pyrrolidin-1-yl)methanone]",
40 to 80,"O=C(N[C@@H](CO)c1noc(-c2ccc(OC(F)(F)F)cc2)n1)c1ccc(Cl)cc1 [Compound 126, (R)-4-chloro-N-(2-hydroxy-1-(5-(4-(trifluoromethoxy)phenyl)-1,2,4-oxadiazol-3-yl)ethyl)benzamide]",
40 to 80,"C[C@H](O)[C@H](NC(=O)c1ccc(Cl)cc1)c1nc(-c2ccc(OC(F)(F)F)cc2)no1 [Compound 127, 4-chloro-N-((1S,2S)-2-hydroxy-1-(3-(4-(trifluoromethoxy)phenyl)-1,2,4-oxa-diazol-5-yl)propyl) benzamide]",
< 40,"N#Cc1cccc(-c2nnc([C@@H](CO)NC(=O)c3ccc(Cl)cc3)o2)c1 [Compound 109, (R)-4-chloro-N-(1-(5-(3-cyanophenyl)-1,3,4-oxadiazol-2-yl)-2-hydroxyethyl) benzamide]",
40 to 80,"COCCCNC(=O)c1ccc(-c2noc([C@H](CO)NC(=O)c3ccc(F)cc3)n2)cc1 [Compound 147, 4-{5-[(1S)-1-[(4-fluorophenyl) formamido]-2-hydroxyethyl]-1,2,4-oxadiazol-3-yl}-N-(3-methoxypropyl) benzamide]",inhibition at 25 µM [2]: 53%
40 to 80,"O=C(c1ccc(Cl)cc1)N1C[C@H](O)C[C@H]1c1nc(-c2ccc(OC(F)(F)F)cc2)no1 [Compound 34, (3R,5S)-1-(4-chlorobenzoyl)-5-{3-[4-(trifluoromethoxy)phenyl]-1,2,4-oxadiazol-5-yl}pyrrolidin-3-ol]",
> 80,"O=C(N[C@@H](CO)c1nc(-c2ccc(C(F)(F)F)cc2)no1)c1cc(F)cc(F)c1 [Compound 196, 3,5-difluoro-N-[(1S)-2-hydroxy-1-{3-[4-(trifluoromethyl)phenyl]-1,2,4-oxadiazol-5-yl}ethyl]benzamide]",
40 to 80,"O=C(N[C@@H](CO)c1nc(-c2c[nH]c3cc(Cl)ccc23)no1)c1ccc(F)cc1 [Compound 263, N-[(1S)-1-[3-(6-chloro-1H-indol-3-yl)-1,2,4-oxadiazol-5-yl]-2-hydroxyethyl]-4-fluorobenzamide]",
